In patent US10065990B2, “Cyclic peptide compound, and preparation method, pharmaceutical composition and use thereof” (HANGZHOU GUANYU BIO-MEDICAL CO., LTD, priority 2013, dated 2018):
Read-outs that look alike come from different tables or passages of the source. Values belong to the molecule of their own block, whether it stands above or below them.

How the values were obtained:
[1] = molecular target: HDAC1 (Homo sapiens, UniProt Q13547); test: HDAC biochemical activity measurement (fluorescent substrate deacetylation);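 further: fluorogenic acetyl-lysine substrate (20 µM) deacetylated by HDAC1, then developer releases fluorophore read at 360 nm excitation and 460 nm emission, inhibitor incubated 30 min at 37 °C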
Sequence of HDAC1 (Q13547 whole entry, species assumed): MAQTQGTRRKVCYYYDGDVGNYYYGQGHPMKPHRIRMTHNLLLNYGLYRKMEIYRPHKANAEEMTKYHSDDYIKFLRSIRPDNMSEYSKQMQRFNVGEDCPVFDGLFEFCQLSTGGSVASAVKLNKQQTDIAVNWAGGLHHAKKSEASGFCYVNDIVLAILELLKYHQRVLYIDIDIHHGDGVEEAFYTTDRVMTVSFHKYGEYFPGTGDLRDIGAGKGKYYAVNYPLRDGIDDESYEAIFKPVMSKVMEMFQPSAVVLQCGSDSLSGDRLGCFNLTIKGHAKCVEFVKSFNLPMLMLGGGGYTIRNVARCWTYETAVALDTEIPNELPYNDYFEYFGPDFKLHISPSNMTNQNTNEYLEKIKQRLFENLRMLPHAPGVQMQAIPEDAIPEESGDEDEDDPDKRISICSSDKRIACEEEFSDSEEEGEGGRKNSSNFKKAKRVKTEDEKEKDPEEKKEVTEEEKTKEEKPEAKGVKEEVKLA
Description: (§2) The chemical activity of the compound is determined according to the degree of deacetylation inhibition of the HDAC enzyme. This experiment measured the degree of deacetylation related to tumor proliferation and metastasis of HDAC1, HDAC2, HDAC3, HDAC8, HDAC11 five subtypes HDAC enzymes. After the substrate containing an acetylated lysine side chain and HDAC enzyme are labeled with a fluorescent label, the fluorescent substrate is de acetyl. The fluorescent labeled substrate is cleaved by the enzyme, and the fluorescent substance is released, which generates 460 nm emission light under the excitation of 360 nm light.
(§3) HDAC substrate was diluted with reaction buffer to 200M (reaction concentration of 20M), the HDAC enzyme was diluted to the appropriate concentration, then added different concentrations of the test compounds and acted at 37° C. 30 minutes, and then added the same volume of 2-times concentration substrate developing solution (developer), incubated at room temperature for 15 minutes.

[2] = molecular target: HDAC2 (Homo sapiens, UniProt Q92769); test: as above; conditions: 37° C. 30 minutes;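 further: HDAC2 enzyme with an acetyl-lysine fluorescent substrate, then developer added, fluorescence read at excitation 360 nm and emission 460 nm, inhibition measured across several compound concentrations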
Sequence of HDAC2 (Q92769 whole entry, species assumed): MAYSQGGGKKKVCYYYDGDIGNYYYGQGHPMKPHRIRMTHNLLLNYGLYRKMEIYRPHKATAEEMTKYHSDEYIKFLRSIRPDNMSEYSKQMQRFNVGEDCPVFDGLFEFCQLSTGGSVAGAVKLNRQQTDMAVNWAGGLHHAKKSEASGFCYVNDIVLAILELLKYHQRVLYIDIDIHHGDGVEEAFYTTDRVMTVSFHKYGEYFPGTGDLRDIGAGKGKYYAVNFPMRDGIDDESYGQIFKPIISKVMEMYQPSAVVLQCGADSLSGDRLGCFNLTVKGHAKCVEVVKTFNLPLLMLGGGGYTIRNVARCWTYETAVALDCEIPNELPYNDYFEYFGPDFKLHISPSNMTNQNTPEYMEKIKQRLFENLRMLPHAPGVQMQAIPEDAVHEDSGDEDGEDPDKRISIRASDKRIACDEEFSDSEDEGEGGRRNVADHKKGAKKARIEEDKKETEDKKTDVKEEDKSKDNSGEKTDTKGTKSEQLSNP
Description: as §2, §3

[3] = system: A549 (human lung cancer cells); test: MTT cancer cell growth inhibition; format: cell-based; conditions: MTT
Outline: (§1)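 Cells grown in DMEM or RPMI 1640 with 10% FBS were seeded at 1500/well and left overnight at 37° C., 5% CO2. Compounds at final 10^−5 to 10^−10 M were added in triplicate for 72 h. MTT was then added for 4 h, formazan dissolved in DMSO, and absorbance read at 570 nm to derive GI50.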

[4] = system: BGC-823 (human gastric cancer cells); test: MTT cancer cell growth inhibition; format: cell-based; conditions: MTT
Outline: as §1

[5] = system: Bel-7402 (human hepatoma cells); test: MTT cancer cell growth inhibition; format: cell-based; conditions: MTT, 72 hours incubation, Bel-7402 cells, read-out: GI50 Bel-7402
Outline: as §1

[6] = system: DU145 (human prostate cancer cells); test: MTT cancer cell growth inhibition; format: cell-based; conditions: MTT
Outline: as §1

[7] = system: H1975 (non-small cell lung adenocarcinoma); test: MTT cancer cell growth inhibition; format: cell-based; conditions: MTT, 72 hours incubation, H1975 cells, read-out: GI50 H1975
Outline: as §1

[8] = system: HCC827 (human non-small cell lung cancer cells); test: MTT cancer cell growth inhibition; format: cell-based; conditions: MTT, 72 hours incubation, HCC827 cells, read-out: GI50 HCC827
Outline: as §1

[9] = system: HT1080 (human fibrosarcoma cells); test: MTT cancer cell growth inhibition; format: cell-based; conditions: MTT
Outline: as §1

[10] = system: Hela (human cervical cancer cells); test: MTT cancer cell growth inhibition; format: cell-based; conditions: MTT
Outline: as §1

[11] = system: Huh-7 (human hepatoma cells); test: MTT cancer cell growth inhibition; format: cell-based; conditions: MTT, 72 hours incubation, Huh-7 cells, read-out: GI50 Huh-7
Outline: as §1

[12] = system: K562 (human leukemia cells); test: MTT cancer cell growth inhibition; format: cell-based; conditions: MTT, 72 hours incubation, K562 cells, read-out: GI50 K562
Outline: as §1

[13] = system: KBM-5 (human chronic myelogenous leukemia); test: MTT cancer cell growth inhibition; format: cell-based; conditions: MTT, 72 hours incubation, KBM-5 cells, read-out: GI50 KBM-5
Outline: as §1

[14] = system: KBM5-T315I (human chronic myelogenous leukemia); test: MTT cancer cell growth inhibition; format: cell-based; conditions: MTT, 72 hours incubation, KBM5-T315I cells, read-out: GI50 KBM5-T315I
Outline: as §1

[15] = system: MCF-7 (human breast cancer cells); test: MTT cancer cell growth inhibition; format: cell-based
Outline: as §1

[16] = system: MDA-MB-231 (breast cancer cells); test: MTT cancer cell growth inhibition; format: cell-based
Outline: as §1

[17] = system: MOLT-4 (human acute lymphoblastic leukemia cells); test: MTT cancer cell growth inhibition; format: cell-based; conditions: MTT
Outline: as §1

[18] = system: N-87 (human gastric cancer cells); test: MTT cancer cell growth inhibition; format: cell-based; conditions: MTT, 72 hours incubation, N-87 cells, read-out: GI50 N-87
Outline: as §1

[19] = system: PANC-1 (Pac-1, human pancreatic cancer cells); test: MTT cancer cell growth inhibition; format: cell-based; conditions: MTT
Outline: as §1

[20] = system: SGC-7901 (human gastric cancer cells); test: MTT cancer cell growth inhibition; format: cell-based; conditions: MTT, 72 hours incubation, SGC-7901 cells, read-out: GI50 SGC-7901
Outline: as §1

[21] = system: U937 (human leukemia cells); test: MTT cancer cell growth inhibition; format: cell-based; conditions: MTT
Outline: as §1

[22] = system: lncap (prostate cancer cells); test: MTT cancer cell growth inhibition; format: cell-based; conditions: MTT
Outline: as §1

[23] = molecular target: HDAC3 (Homo sapiens, UniProt O15379); test: HDAC biochemical activity measurement (fluorescent substrate deacetylation);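 further: fluorogenic acetyl-lysine substrate (20 µM) deacetylated by HDAC3, then developer added for 15 min at room temperature, release of fluorophore read at excitation 360 nm, emission 460 nm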; conditions: read-out: IC50 HDAC3; HDAC3; 37° C. 30 minutes
Sequence of HDAC3 (O15379 whole entry, species assumed): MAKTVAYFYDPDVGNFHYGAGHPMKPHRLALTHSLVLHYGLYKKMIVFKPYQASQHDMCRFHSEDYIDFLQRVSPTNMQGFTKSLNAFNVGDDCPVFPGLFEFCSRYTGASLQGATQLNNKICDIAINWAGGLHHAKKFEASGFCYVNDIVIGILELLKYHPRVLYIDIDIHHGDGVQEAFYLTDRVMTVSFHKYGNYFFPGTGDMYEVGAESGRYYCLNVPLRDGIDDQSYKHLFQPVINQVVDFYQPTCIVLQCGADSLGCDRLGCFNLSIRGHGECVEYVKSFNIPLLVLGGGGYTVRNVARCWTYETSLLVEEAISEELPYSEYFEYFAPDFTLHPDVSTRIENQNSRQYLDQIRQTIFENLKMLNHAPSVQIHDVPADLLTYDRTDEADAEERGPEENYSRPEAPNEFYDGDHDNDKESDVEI
Sequence of HDAC3 (Q9Y618 395-489 partner limits assumed, species assumed): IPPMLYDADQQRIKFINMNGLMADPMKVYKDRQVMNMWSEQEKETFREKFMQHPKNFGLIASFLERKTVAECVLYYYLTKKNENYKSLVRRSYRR
Description: as §2, §3

[24] = HDAC1, 37° C. 30 minutes, read-out: IC50 HDAC1
[25] = A549 cells, 72 hours incubation, read-out: GI50 A54
[26] = BGC-823 cells, 72 hours incubation, read-out: GI50 BG
[27] = DU145 cells, 72 hours incubation, read-out: GI50 Du1
[28] = HT1080 cells, 72 hours incubation, read-out: GI50 HT1
[29] = Hela cells, 72 hours incubation, read-out: GI50 Hela
[30] = MCF-7 cells, 72 hours incubation, read-out: GI50 MCF
[31] = read-out: GI50 MDA-MB-231, MTT, 72 hours incubation, MDA-MB-231 cells
[32] = MOLT-4 cells, 72 hours incubation, read-out: GI50 Mol
[33] = PANC-1 cells, 72 hours incubation, read-out: GI50 PAN
[34] = U937 cells, 72 hours incubation, read-out: GI50 U93
[35] = lncap cells, 72 hours incubation, read-out: GI50 lnca
[36] = Table 2, read-out: IC50 HDAC1, a (compounds of the present invention)
[37] = Homo sapiens, A549, 72 h, A549 cells, 72 hours incubation, read-out: GI50 A54
[38] = Homo sapiens, A549, 72 h, 72 hours, present invention, read-out: GI50 A549, a
[39] = Homo sapiens, BGC-823, 72 h, BGC-823 cells, 72 hours incubation, read-out: GI50 BG
[40] = Homo sapiens, BGC-823, 72 h, 72 hours, present invention, read-out: GI50 BGC823, a
[41] = Homo sapiens, DU-145, 72 h, DU145 cells, 72 hours incubation, read-out: GI50 Du1
[42] = Homo sapiens, DU-145, 72 h, 72 hours, present invention, read-out: GI50 Du145, a
[43] = Homo sapiens, HT-1080, 72 h, HT1080 cells, 72 hours incubation, read-out: GI50 HT1
[44] = Homo sapiens, HT-1080, 72 h, 72 hours, present invention, read-out: GI50 HT1080, a
[45] = Homo sapiens, HeLa, 72 h, Hela cells, 72 hours incubation, read-out: GI50 Hela
[46] = Homo sapiens, HeLa, 72 h, 72 hours, present invention, read-out: GI50 Hela, a
[47] = Homo sapiens, MCF7, 72 h, 72 hours, present invention, read-out: GI50 MCF7, a
[48] = Homo sapiens, MCF7, 72 h, MCF-7 cells, 72 hours incubation, read-out: GI50 MCF
[49] = Homo sapiens, MDA-MB-231, 72 h, read-out: GI50 MDA-MB-231, MTT, 72 hours incubation, MDA-MB-231 cells
[50] = Homo sapiens, MOLT-4, 72 h, MOLT-4 cells, 72 hours incubation, read-out: GI50 Mol
[51] = Homo sapiens, MOLT-4, 72 h, 72 hours, present invention, read-out: GI50 Molt-4, a
[52] = Homo sapiens, PANC-1, 72 h, 72 hours, present invention, read-out: GI50 PANC-1, a
[53] = Homo sapiens, PANC-1, 72 h, PANC-1 cells, 72 hours incubation, read-out: GI50 PAN
[54] = Homo sapiens, U-937, 72 h, 72 hours, present invention, read-out: GI50 U937, a
[55] = Homo sapiens, U-937, 72 h, U937 cells, 72 hours incubation, read-out: GI50 U93
[56] = Homo sapiens, LNCaP, 72 h, 72 hours, present invention, read-out: GI50 lncap, a
[57] = Homo sapiens, LNCaP, 72 h, lncap cells, 72 hours incubation, read-out: GI50 lnca

IC50 [1, 24]: 0.035 µM
IC50 [2]: 0.043 µM
GI50 [3, 25]: 0.07 µM
GI50 [4, 26]: 0.03 µM
GI50 [5]: 0.037 µM
GI50 [6, 27]: 0.02 µM
GI50 [7]: 0.043 µM
GI50 [8]: 0.029 µM
GI50 [9, 28]: 0.02 µM
GI50 [10, 29]: 0.01 µM
GI50 [11]: 0.019 µM
GI50 [12]: 0.062 µM
GI50 [13]: 0.041 µM
GI50 [14]: 0.083 µM
GI50 [15, 30]: 0.06 µM
GI50 [16, 31]: 0.019 µM
GI50 [17, 32]: 0.09 µM
GI50 [18]: 0.057 µM
GI50 [19, 33]: 0.07 µM
GI50 [20]: 0.028 µM
GI50 [21, 34]: 0.09 µM
GI50 [22, 35]: 0.03 µM
IC50 [23]: 0.122 µM
Compound: C/C=C1\NC(=O)c2ncc(SC)c(n2)CNC(=O)C[C@@H](/C=C/CCSC(C)=O)OC(=O)[C@H](C(C)C)NC1=O [Compound 217]

IC50 [1, 24]: 0.087 µM
IC50 [1, 36]: < 0.1 µM
IC50 [2]: 0.056 µM
GI50 [3, 37]: 0.94 µM
GI50 [3, 38]: 0.94 µM
GI50 [4, 39]: 0.86 µM
GI50 [4, 40]: 0.86 µM
GI50 ([5]; Homo sapiens, Bel-7402, 72 h): 0.035 µM
GI50 [6, 41]: 0.13 µM
GI50 [6, 42]: 0.13 µM
GI50 ([7]; Homo sapiens, NCI-H1975, 72 h): 0.043 µM
GI50 ([8]; Homo sapiens, HCC827, 72 h): 0.037 µM
GI50 [9, 43]: 0.84 µM
GI50 [9, 44]: 0.84 µM
GI50 [10, 45]: 0.23 µM
GI50 [10, 46]: 0.23 µM
GI50 ([11]; Homo sapiens, Huh-7, 72 h): 0.053 µM
GI50 ([12]; Homo sapiens, K562, 72 h): 0.032 µM
GI50 ([13]; Homo sapiens, KBM5, 72 h): 0.093 µM
GI50 ([14]; Homo sapiens, 72 h): 0.045 µM
GI50 [15, 47]: 0.12 µM
GI50 [15, 48]: 0.12 µM
GI50 [16, 49]: 0.093 µM
GI50 [17, 50]: 0.49 µM
GI50 [17, 51]: 0.49 µM
GI50 ([18]; Homo sapiens, 72 h): 0.023 µM
GI50 [19, 52]: 0.52 µM
GI50 [19, 53]: 0.52 µM
GI50 ([20]; Homo sapiens, SGC-7901, 72 h): 0.025 µM
GI50 [21, 54]: 0.87 µM
GI50 [21, 55]: 0.87 µM
GI50 [22, 56]: 0.47 µM
GI50 [22, 57]: 0.47 µM
IC50 [23]: 0.048 µM
Compound: C/C=C1\NC(=O)c2nc(ccc2C)CNC(=O)C[C@@H](/C=C/CCSC(=O)CCCCCCC)OC(=O)[C@H](C(C)C)NC1=O [Compound 243]

IC50 [1, 24]: 0.184 µM
IC50 [2]: 0.335 µM
GI50 [3, 25]: 0.05 µM
GI50 [4, 26]: 0.03 µM
GI50 [5]: 0.023 µM
GI50 [6, 27]: 0.05 µM
GI50 [7]: 0.096 µM
GI50 [8]: 0.052 µM
GI50 [9, 28]: 0.09 µM
GI50 [10, 29]: 0.06 µM
GI50 [11]: 0.036 µM
GI50 [12]: 0.023 µM
GI50 [13]: 0.016 µM
GI50 [14]: 0.063 µM
GI50 [15, 30]: 0.04 µM
GI50 [16, 31]: 0.062 µM
GI50 [17, 32]: 0.03 µM
GI50 [18]: 0.017 µM
GI50 [19, 33]: 0.06 µM
GI50 [20]: 0.093 µM
GI50 [21, 34]: 0.03 µM
GI50 [22, 35]: 0.03 µM
IC50 [23]: 0.563 µM
Compound: C/C=C1\NC(=O)c2cc(SC)cc(n2)CNC(=O)C[C@@H](/C=C/CCSC(C)=O)OC(=O)[C@H](C(C)C)NC1=O [Compound 224]

IC50 [1, 24]: 0.066 µM
IC50 [1, 36]: < 0.1 µM
IC50 [2]: 0.074 µM
GI50 [3, 37]: 0.11 µM
GI50 [3, 38]: 0.11 µM
GI50 [4, 39]: 0.77 µM
GI50 [4, 40]: 0.77 µM
GI50 ([5]; Homo sapiens, Bel-7402, 72 h): 0.087 µM
GI50 [6, 41]: 0.13 µM
GI50 [6, 42]: 0.13 µM
GI50 ([7]; Homo sapiens, NCI-H1975, 72 h): 0.028 µM
GI50 ([8]; Homo sapiens, HCC827, 72 h): 0.096 µM
GI50 [9, 43]: 0.65 µM
GI50 [9, 44]: 0.65 µM
GI50 [10, 45]: 0.53 µM
GI50 [10, 46]: 0.53 µM
GI50 ([11]; Homo sapiens, Huh-7, 72 h): 0.031 µM
GI50 ([12]; Homo sapiens, K562, 72 h): 0.083 µM
GI50 ([13]; Homo sapiens, KBM5, 72 h): 0.011 µM
GI50 ([14]; Homo sapiens, 72 h): 0.012 µM
GI50 [15, 47]: 0.041 µM
GI50 [15, 48]: 0.04 µM
GI50 [16, 49]: 0.065 µM
GI50 [17, 50]: 0.35 µM
GI50 [17, 51]: 0.35 µM
GI50 ([18]; Homo sapiens, 72 h): 0.053 µM
GI50 [19, 52]: 0.14 µM
GI50 [19, 53]: 0.14 µM
GI50 ([20]; Homo sapiens, SGC-7901, 72 h): 0.063 µM
GI50 [21, 54]: 0.84 µM
GI50 [21, 55]: 0.84 µM
GI50 [22, 56]: 0.86 µM
GI50 [22, 57]: 0.86 µM
IC50 [23]: 0.052 µM
Compound: CCCCCCCC(=O)SCC/C=C/[C@@H]1CC(=O)NCc2cccc(n2)C(=O)NC(CC)C(=O)N[C@@H](C(C)C)C(=O)O1 (stereo partly drawn) [Compound 245]
